Results: patent US10745408B2, “Biologically active taxane analogs and methods of treatment by oral administration” (Tapestry Pharmaceuticals, Inc., priority 2007, dated 2020)
Entries after “also recorded” stand apart in the source; their conditions may differ.

Assays:
[1] = Crossing of rat blood-brain barrier (FIG. 1); assay type: in vivo
[2] = test system: HT29; assay: MTS proliferation assay, colon HT29; assay type: cell-based; conditions: Homo sapiens, HT-29
Procedure: (§1) MTS Proliferation Assay (Promega)
(§2) Day 1: Cells were plated in appropriate growth medium at 5×10^3 per well in 100 ul in 96 well tissue culture plates, Falcon, one for each drug to be tested. Col 1 was blank; it contained no cells, just medium. The plates were incubated overnight at 37° C., 5% CO2 to allow attachment.
(§3) Day 2: Added 120 ul growth medium in wells of 96-well “dilution plates” (one for each drug) and let sit in 37° C. incubator for about 1 hr.
(§4) Thawed DMSO drug stocks (usually at 10 mM). Each drug was diluted 6 ul into a tube with 3 ml growth medium, to 20 μM.
(§5) Aspirated medium from col 12 of a dilution plate; added 200-300 ul of 20 uM drug to wells of col 12. Made serial dilution down this 96-well plate: for a […] dilution pattern, moved 60 ul from col 12 to col 11, mixed 4-5 times (using 8 place multi-pipettor), moved 60 ul to col 10, etc. stopping at col 3.
(§6) Moved 100 ul of medium+drug from dilution plate to a cell plate, i.e. col 1 from drug plate (blank=no cells) to col 1 of cell plate, etc. up to col 12. Col 2 contained cells with no drug. […]
(§7) Day 4 or 5: Terminated the assay 48 to 72 hrs after drug addition. […] When the color turned dark in control wells (col 2), and was still light in col 12, the absorbance at 490 nm was read on a plate reader; the results were used to calculate IC50.

[3] = test system: DU145; assay: MTS proliferation assay, prostate DU145; assay type: cell-based; conditions: Homo sapiens, DU-145
Procedure: as §1, §2, §3, §4, §5, §6, §7

[4] = test system: MDA435s; assay: MTS proliferation assay, breast MDA435s; assay type: cell-based
Procedure: as §1, §2, §3, §4, §5, §6, §7

[5] = Injection formulation administered IV and orally: mouse PK parameters; assay type: in vivo; conditions: for half-life: read-out: t ½ (converted)
[6] = Central nervous system (CNS) safety study in rats; assay type: in vivo, male Sprague Dawley rats
Procedure: Toxicology. Central Nervous System (CNS) Safety Study in Rats:
This study was conducted at ClinTrials BioResearch (CTBR, Montreal, Quebec, Canada) as a GLP study.
All animals were observed twice daily for signs of ill health or reaction to treatment, except on day of arrival and necropsy. A Functional Observation Battery (FOB) assessment, along with grip strength, hind limb splay and body temperature measurements were performed for all animals once pre-dose and at approximately 15 minutes, 1 hour, 4 hours, 8 hours and 24 hours post-dose. After the last observation, all animals were euthanized without further examination.

[7] = test system: patients with advanced neoplasms; assay: Phase 1 Study S-(1)-01 safety, tolerability and anti-neoplastic activity; assay type: in vivo, human
Source text: (§8) Both trials have enrolled patients with advanced solid tumors, non-Hodgkin's lymphoma or Hodgkin's lymphoma that have recurred or progressed following at least standard therapy; patients with malignancies for which there is no standard therapy; patients who are not candidates for standard therapy; or patients who have chosen not to pursue standard therapy. […] Study S-(1)-01 is currently being conducted in the United States. […] Study S-(1)-02 is currently being conducted in the United States and in Israel.
Treatment cohorts consisted of 3 pts and were expanded to 6 pts in the face of dose-limiting toxicity (DLT); pts could remain on study until the development of progressive disease or an intolerable adverse event. DLT was defined as Gr 4 heme toxicity lasting 7 days; febrile neutropenia, Gr 3 thrombocytopenia with bleeding, Gr 3 elevation of transaminases lasting 7 days or any other Gr 3/4 toxicity other than nausea or vomiting.

[8] = test system: MESSA/Dox (MDR+); assay: MTS proliferation assay, uterine MESSA/Dox (MDR+); assay type: cell-based; conditions: Homo sapiens, MES-SA
Procedure: as §1, §2, §3, §4, §5, §6, §7

[9] = Phase 1 Study S-(1)-01 plasma pharmacokinetics (weekly x3, 28-day cycle); assay type: in vivo, human; conditions: for half-life / AUC(0-t): human, plasma; for AUC(0-t): read-out: AUC0-24
Source text: as §8
Plasma pharmacokinetics of S-(1) were assessed following the first dose of S-(1) in both studies. Plasma samples were analyzed for S-(1) using a validated LC/MS-MS method.

[10] = mouse, in vivo, Oral 10 mg/kg, injection formulation
[11] = 14 mg/m^2 i.v., first dose, 50:50 Cremophor EL-P/ethanol formulation
[12] = 28 mg/m^2 i.v., first dose, 50:50 Cremophor EL-P/ethanol formulation
[13] = 56 mg/m^2 i.v., first dose, 50:50 Cremophor EL-P/ethanol formulation
[14] = 85 mg/m^2 i.v., first dose, 50:50 Cremophor EL-P/ethanol formulation
[15] = 127.5 mg/m^2 i.v., first dose, 50:50 Cremophor EL-P/ethanol formulation

**Q.** For `C=C[C@H]1O[C@H]2C[C@H]3OC[C@@]3(OC(C)=O)[C@H]3[C@H](OC(=O)c4ccccc4)[C@]4(C(C)(C)O)CC(OC(=O)[C@H](O)C(CC(C)C)NC(=O)OC(C)(C)C)C(C)=C4[C@H](OC(C)=O)[C@H](O1)[C@]23C` (stereo partly drawn) [S-(1)], which “crossing of blood-brain barrier” value [1] is on record?
**A.** Its value is “crosses rat blood-brain barrier”.

**Q.** What about the IC50 [2] of the same compound?
**A.** Its IC50 is 0.006 nM.

**Q.** And the IC50 [3]?
**A.** Its IC50 is 60 nM.

**Q.** What about the IC50 [4] of the same compound?
**A.** The IC50 was 10 nM.

**Q.** And the F ([5]; Oral 10 mg/kg vs IV 10 mg/kg)?
**A.** The F was 47%.

**Q.** What about the AUC(0-inf) ([5]; mouse, in vivo, IV 10 mg/kg) of the same compound?
**A.** The AUC(0-inf) was 7.74 µM·h.

**Q.** What about the AUC(0-t) ([5]; mouse, in vivo, IV 10 mg/kg) of the same compound?
**A.** Its AUC(0-t) is 6.3 µM·h.

**Q.** What about the clearance ([5]; mouse, in vivo, IV 10 mg/kg) of the same compound?
**A.** The clearance was 24.8 mL/min/kg.

**Q.** And the Vd ([5]; mouse, in vivo, IV 10 mg/kg, read-out: Vdss)?
**A.** The Vd was 13.3 L/kg.

**Q.** And the half-life ([5]; mouse, in vivo, IV 10 mg/kg)?
**A.** The half-life was 6.1 h.

**Q.** What about the AUC(0-inf) [5, 10] of the same compound?
**A.** The AUC(0-inf) was 3.61 µM·h.

**Q.** And the AUC(0-t) [5, 10]?
**A.** The AUC(0-t) was 3.43 µM·h.

**Q.** And the Cmax [5, 10]?
**A.** Its Cmax is 460 nM.

**Q.** What about the Tmax [5, 10] of the same compound?
**A.** Its Tmax is 6 h.

**Q.** And the half-life [5, 10]?
**A.** Its half-life is 5.1 h.

**Q.** What about the “deaths or treatment-related clinical signs” value ([6]; single intravenous 6.25, 12.5 or 25 mg/kg) of the same compound?
**A.** Its value is “no deaths or treatment-related clinical signs”.

**Q.** And the “biological effect on central nervous system (FOB, grip strength, hind limb splay, body temperature)” value ([6]; single intravenous 6.25, 12.5 or 25 mg/kg, 15 minutes, 1, 4, 8 and 24 hours post-dose)?
**A.** The value was “no biological effects”.

**Q.** What about the “no adverse effect level” value ([6]; single intravenous injection) of the same compound?
**A.** Its value is 25 mg/kg.

**Q.** What about the Dose limiting toxicity ([7]; 185 mg/m^2, weekly x3, 28-day cycle) of the same compound?
**A.** Its Dose limiting toxicity is “Grade 3 sensory neuropathy; also recorded: Grade 3 peripheral neuropathy”.

**Q.** And the “Drug related adverse events” value ([7]; 7-185 mg/m^2 weekly x3)?
**A.** The value was “nausea, vomiting, diarrhea, fatigue, anorexia, rash, anemia and peripheral neuropathy”.

**Q.** What about the anti-neoplastic activity ([7]; patient with pancreatic cancer) of the same compound?
**A.** The anti-neoplastic activity was “Anti-neoplastic activity was seen”.

**Q.** What about the “dose that can be safely administered” value ([7]; weekly×3, heavily pre-treated patients) of the same compound?
**A.** Its value is “up to 185 mg/m^2”.

**Q.** And the IC50 [8]?
**A.** The IC50 was 44.8 nM.

**Q.** And the Cl [9, 11]?
**A.** Its Cl is 35.5 ± 29.7 L/hr/m^2.

**Q.** What about the Vss [9, 11] of the same compound?
**A.** Its Vss is 23.2 ± 74.5 L/m^2.

**Q.** And the Cl [9, 12]?
**A.** Its Cl is 43.5 ± 14.5 L/hr/m^2.

**Q.** What about the Vss [9, 12] of the same compound?
**A.** Its Vss is 309 ± 161 L/m^2.

**Q.** And the Cl [9, 13]?
**A.** The Cl was 28.6 ± 13.2 L/hr/m^2.

**Q.** What about the Vss [9, 13] of the same compound?
**A.** The Vss was 216 ± 70 L/m^2.

**Q.** And the Cl [9, 14]?
**A.** Its Cl is 16.6 ± 9.26 L/hr/m^2.

**Q.** What about the Vss [9, 14] of the same compound?
**A.** The Vss was 142 ± 75.6 L/m^2.

**Q.** What about the Cl [9, 15] of the same compound?
**A.** Its Cl is 30.2±11.9 L/hr/m^2.

**Q.** What about the Vss [9, 15] of the same compound?
**A.** Its Vss is 239 ± 116 L/m^2.

**Q.** What about the t1/2 [9, 15] of the same compound?
**A.** The t1/2 was 6.59 ± 2.60 h.

**Q.** What about the half-life ([9]; intravenous, S-(1)-01 study, all dose groups, read-out: Plasma t1/2 values, range over dose groups) of the same compound?
**A.** The half-life was 3.45 to 8.4 h.

**Q.** What about the AUC(0-t) ([9]; iv, 14 mg/m2, 14 mg/m^2 i.v., first dose, 50:50 Cremophor EL-P/ethanol formulation) of the same compound?
**A.** The AUC(0-t) was 457 ± 297 ng·h/mL.

**Q.** What about the half-life ([9]; iv, 14 mg/m2, 14 mg/m^2 i.v., first dose, 50:50 Cremophor EL-P/ethanol formulation, read-out: t1/2 (converted)) of the same compound?
**A.** The half-life was 8.4 ± 11.5 h.

**Q.** What about the AUC(0-t) ([9]; iv, 28 mg/m2, 28 mg/m^2 i.v., first dose, 50:50 Cremophor EL-P/ethanol formulation) of the same compound?
**A.** The AUC(0-t) was 682 ± 322 ng·h/mL.

**Q.** What about the half-life ([9]; iv, 28 mg/m2, 28 mg/m^2 i.v., first dose, 50:50 Cremophor EL-P/ethanol formulation, read-out: t1/2 (converted)) of the same compound?
**A.** The half-life was 3.45 ± 1.09 h.

**Q.** And the AUC(0-t) ([9]; iv, 56 mg/m2, 56 mg/m^2 i.v., first dose, 50:50 Cremophor EL-P/ethanol formulation)?
**A.** Its AUC(0-t) is 2070 ± 888 ng·h/mL.

**Q.** And the half-life ([9]; iv, 56 mg/m2, 56 mg/m^2 i.v., first dose, 50:50 Cremophor EL-P/ethanol formulation, read-out: t1/2 (converted))?
**A.** Its half-life is 5.66 ± 3.63 h.

**Q.** And the AUC(0-t) ([9]; iv, 85 mg/m2, 85 mg/m^2 i.v., first dose, 50:50 Cremophor EL-P/ethanol formulation)?
**A.** The AUC(0-t) was 5970 ± 3900 ng·h/mL.

**Q.** What about the half-life ([9]; iv, 85 mg/m2, 85 mg/m^2 i.v., first dose, 50:50 Cremophor EL-P/ethanol formulation, read-out: t1/2 (converted)) of the same compound?
**A.** Its half-life is 5.52 ± 5.26 h.

**Q.** What about the AUC(0-t) ([9]; iv, 127.5 mg/m2, 127.5 mg/m^2 i.v., first dose, 50:50 Cremophor EL-P/ethanol formulation) of the same compound?
**A.** Its AUC(0-t) is 4460 ± 2140 ng·h/mL.

**Q.** And the half-life ([9]; iv, 127.5 mg/m2, 127.5 mg/m^2 i.v., first dose, 50:50 Cremophor EL-P/ethanol formulation, read-out: t1/2 (converted))?
**A.** Its half-life is 8.6 ± 1.3 h.
